ChEMBL document CHEMBL1201862, “PubChem BioAssay data set” (2004)
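Step 1: Grow cells in 96-well plates. Step 2: Expose to compound for 48 hours at 5 concentrations. Step 3: Interpolate endpoints linearly; if unreached, use highest concentration. GI50 marks 50% less growth.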 Activity calls are given as the source filed them. Cut-off read from the data, not from the text of the source: active = GI50 up to about 1.1 µM and inactive = higher.

Legend:
Experiment in all cases: growth of human tumour cells (NCI), 48 h
SN12C = system: SN12C
EKVX = system: EKVX
MDA-MB-435 = system: MDA-MB-435
786-0 = system: 786-0
Malme-3M = system: Malme-3M
KM12 = system: KM12
T47D = system: T47D
SK-MEL-5 = system: SK-MEL-5
COLO 205 = system: COLO 205
CAKI-1 = system: CAKI-1
HCC 2998 = system: HCC 2998
RXF 393 = system: RXF 393
SK-MEL-28 = system: SK-MEL-28
UO-31 = system: UO-31
NCI-H460 = system: NCI-H460
HCT-116 = system: HCT-116
MCF7 = system: MCF7
OVCAR-5 = system: OVCAR-5
NCI-H23 = system: NCI-H23
M14 = system: M14
NCI-H226 = system: NCI-H226
HOP-62 = system: HOP-62
SNB-19 = system: SNB-19
K562 = system: K562
SF-268 = system: SF-268
NCI/ADR-RES = system: NCI/ADR-RES
MOLT-4 = system: MOLT-4
SW-620 = system: SW-620
A549 = system: A549
CCRF-CEM = system: CCRF-CEM
PC-3 = system: PC-3
HL-60 = system: HL-60
UACC-257 = system: UACC-257
A498 = system: A498
MDA-N = system: MDA-N
BT-549 = system: BT-549
SF-539 = system: SF-539
OVCAR-4 = system: OVCAR-4
SR = system: SR
RPMI-8226 = system: RPMI-8226
Hs-578T = system: Hs-578T
OVCAR-8 = system: OVCAR-8
IGROV-1 = system: IGROV-1
ACHN = system: ACHN
MDA-MB-231 = system: MDA-MB-231
HT-29 = system: HT-29
SF-295 = system: SF-295
U-251 = system: U-251
NCI-H522 = system: NCI-H522
UACC-62 = system: UACC-62
LOX IMVI = system: LOX IMVI
SK-MEL-2 = system: SK-MEL-2
DU-145 = system: DU-145
OVCAR-3 = system: OVCAR-3
HCT-15 = system: HCT-15
TK-10 = system: TK-10
SK-OV-3 = system: SK-OV-3
SNB-75 = system: SNB-75
HOP-92 = system: HOP-92

COC(=O)c1cc(NC(=O)Cn2c3ccccc3c3ccccc32)cn1C
GI50 (SN12C): 55.3 µM (inactive)
GI50 (EKVX): 34 µM (inactive)
GI50 (MDA-MB-435): 78.5 µM (inactive)
GI50 (786-0): 29.7 µM (inactive)
GI50 (Malme-3M): 30.2 µM (inactive)
GI50 (KM12): 38.2 µM (inactive)
GI50 (T47D): > 100 µM (inactive)
GI50 (SK-MEL-5): 65.8 µM (inactive)
GI50 (COLO 205): 45 µM (inactive)
GI50 (CAKI-1): 84.5 µM (inactive)
GI50 (HCC 2998): 78.9 µM (inactive)
GI50 (RXF 393): 39.1 µM (inactive)
GI50 (SK-MEL-28): > 100 µM (inactive)
GI50 (UO-31): 25 µM (inactive)
GI50 (NCI-H460): 57.5 µM (inactive)
GI50 (HCT-116): 46.2 µM (inactive)
GI50 (MCF7): 59 µM (inactive)
GI50 (OVCAR-5): > 100 µM (inactive)
GI50 (NCI-H23): 39.3 µM (inactive)
GI50 (M14): > 100 µM (inactive)
GI50 (NCI-H226): 21.6 µM (inactive)
GI50 (HOP-62): 25.6 µM (inactive)
GI50 (SNB-19): 39.4 µM (inactive)
GI50 (K562): 59.2 µM (inactive)
GI50 (SF-268): 30.6 µM (inactive)
GI50 (NCI/ADR-RES): 30.3 µM (inactive)
GI50 (MOLT-4): 61 µM (inactive)
GI50 (SW-620): > 100 µM (inactive)
GI50 (A549): 26.7 µM (inactive)
GI50 (CCRF-CEM): 39.3 µM (inactive)
GI50 (PC-3): 31 µM (inactive)
GI50 (HL-60): > 100 µM (inactive)
GI50 (UACC-257): 53.8 µM (inactive)
GI50 (A498): > 100 µM (inactive)
GI50 (MDA-N): > 100 µM (inactive)
GI50 (BT-549): 24.9 µM (inactive)
GI50 (SF-539): 23.9 µM (inactive)
GI50 (OVCAR-4): 17.3 µM (inactive)
GI50 (SR): 49.5 µM (inactive)
GI50 (RPMI-8226): 19.5 µM (inactive)
GI50 (Hs-578T): 14.2 µM (inactive)
GI50 (OVCAR-8): 30.1 µM (inactive)
GI50 (IGROV-1): 24.3 µM (inactive)
GI50 (ACHN): 33.7 µM (inactive)
GI50 (MDA-MB-231): 20.1 µM (inactive)
GI50 (HT-29): 49.9 µM (inactive)
GI50 (SF-295): 26.9 µM (inactive)
GI50 (U-251): 26.4 µM (inactive)
GI50 (NCI-H522): 28.3 µM (inactive)
GI50 (UACC-62): 17.1 µM (inactive)
GI50 (LOX IMVI): 53.3 µM (inactive)
GI50 (SK-MEL-2): 47.9 µM (inactive)
GI50 (DU-145): > 100 µM (inactive)
GI50 (OVCAR-3): > 100 µM (inactive)
GI50 (HCT-15): 92.7 µM
GI50 (TK-10): 49.7 µM (inactive)
GI50 (SK-OV-3): 25.6 µM (inactive)

CCOC(=O)c1cn(CC)c2ccc3c(c2c1=O)S(=O)(=O)C=C3
GI50 (SN12C): > 100 µM (inactive)
GI50 (SNB-75): > 100 µM (inactive)
GI50 (EKVX): > 100 µM (inactive)
GI50 (MDA-MB-435): > 100 µM (inactive)
GI50 (786-0): > 100 µM (inactive)
GI50 (Malme-3M): > 100 µM (inactive)
GI50 (KM12): > 100 µM (inactive)
GI50 (T47D): > 100 µM (inactive)
GI50 (SK-MEL-5): > 100 µM (inactive)
GI50 (COLO 205): > 100 µM (inactive)
GI50 (CAKI-1): > 100 µM (inactive)
GI50 (HCC 2998): > 100 µM (inactive)
GI50 (RXF 393): 47 µM (inactive)
GI50 (SK-MEL-28): > 100 µM (inactive)
GI50 (UO-31): 60.1 µM (inactive)
GI50 (NCI-H460): > 100 µM (inactive)
GI50 (HCT-116): > 100 µM (inactive)
GI50 (MCF7): > 100 µM (inactive)
GI50 (OVCAR-5): > 100 µM (inactive)
GI50 (NCI-H23): > 100 µM (inactive)
GI50 (M14): > 100 µM (inactive)
GI50 (NCI-H226): 63.7 µM (inactive)
GI50 (HOP-62): > 100 µM (inactive)
GI50 (SNB-19): > 100 µM (inactive)
GI50 (K562): > 100 µM (inactive)
GI50 (SF-268): > 100 µM (inactive)
GI50 (NCI/ADR-RES): > 100 µM (inactive)
GI50 (MOLT-4): > 100 µM (inactive)
GI50 (SW-620): > 100 µM (inactive)
GI50 (A549): > 100 µM (inactive)
GI50 (CCRF-CEM): > 100 µM (inactive)
GI50 (PC-3): > 100 µM (inactive)
GI50 (HL-60): > 100 µM (inactive)
GI50 (UACC-257): > 100 µM (inactive)
GI50 (A498): > 100 µM (inactive)
GI50 (MDA-N): > 100 µM (inactive)
GI50 (BT-549): > 100 µM (inactive)
GI50 (SF-539): > 100 µM (inactive)
GI50 (HOP-92): > 100 µM (inactive)
GI50 (OVCAR-4): > 100 µM (inactive)
GI50 (RPMI-8226): > 100 µM (inactive)
GI50 (Hs-578T): 52.6 µM (inactive)
GI50 (OVCAR-8): > 100 µM (inactive)
GI50 (IGROV-1): > 100 µM (inactive)
GI50 (ACHN): > 100 µM (inactive)
GI50 (MDA-MB-231): > 100 µM (inactive)
GI50 (HT-29): > 100 µM (inactive)
GI50 (SF-295): > 100 µM (inactive)
GI50 (U-251): > 100 µM (inactive)
GI50 (NCI-H522): > 100 µM (inactive)
GI50 (UACC-62): > 100 µM (inactive)
GI50 (LOX IMVI): > 100 µM (inactive)
GI50 (SK-MEL-2): 52.5 µM (inactive)
GI50 (DU-145): > 100 µM (inactive)
GI50 (OVCAR-3): > 100 µM (inactive)
GI50 (HCT-15): > 100 µM
GI50 (TK-10): > 100 µM (inactive)
GI50 (SK-OV-3): > 100 µM (inactive)

Cc1c(CN2CCOCC2)c(CN2CCOCC2)c(C)n1-c1ccc(Cl)cn1
GI50 (SN12C): > 100 µM (inactive)
GI50 (SNB-75): > 100 µM (inactive)
GI50 (EKVX): > 100 µM (inactive)
GI50 (MDA-MB-435): > 100 µM (inactive)
GI50 (786-0): > 100 µM (inactive)
GI50 (Malme-3M): > 100 µM (inactive)
GI50 (KM12): > 100 µM (inactive)
GI50 (T47D): > 100 µM (inactive)
GI50 (SK-MEL-5): > 100 µM (inactive)
GI50 (COLO 205): > 100 µM (inactive)
GI50 (CAKI-1): > 100 µM (inactive)
GI50 (HCC 2998): > 100 µM (inactive)
GI50 (RXF 393): > 100 µM (inactive)
GI50 (SK-MEL-28): > 100 µM (inactive)
GI50 (UO-31): > 100 µM (inactive)
GI50 (NCI-H460): > 100 µM (inactive)
GI50 (HCT-116): > 100 µM (inactive)
GI50 (MCF7): > 100 µM (inactive)
GI50 (OVCAR-5): > 100 µM (inactive)
GI50 (NCI-H23): > 100 µM (inactive)
GI50 (M14): > 100 µM (inactive)
GI50 (NCI-H226): > 100 µM (inactive)
GI50 (HOP-62): > 100 µM (inactive)
GI50 (SNB-19): > 100 µM (inactive)
GI50 (K562): > 100 µM (inactive)
GI50 (SF-268): > 100 µM (inactive)
GI50 (NCI/ADR-RES): > 100 µM (inactive)
GI50 (MOLT-4): > 100 µM (inactive)
GI50 (SW-620): > 100 µM (inactive)
GI50 (A549): > 100 µM (inactive)
GI50 (CCRF-CEM): > 100 µM (inactive)
GI50 (PC-3): > 100 µM (inactive)
GI50 (UACC-257): > 100 µM (inactive)
GI50 (A498): > 100 µM (inactive)
GI50 (MDA-N): > 100 µM (inactive)
GI50 (BT-549): > 100 µM (inactive)
GI50 (OVCAR-4): > 100 µM (inactive)
GI50 (SR): > 100 µM (inactive)
GI50 (RPMI-8226): > 100 µM (inactive)
GI50 (Hs-578T): > 100 µM (inactive)
GI50 (OVCAR-8): > 100 µM (inactive)
GI50 (IGROV-1): > 100 µM (inactive)
GI50 (ACHN): > 100 µM (inactive)
GI50 (MDA-MB-231): > 100 µM (inactive)
GI50 (HT-29): > 100 µM (inactive)
GI50 (SF-295): > 100 µM (inactive)
GI50 (U-251): > 100 µM (inactive)
GI50 (NCI-H522): > 100 µM (inactive)
GI50 (UACC-62): > 100 µM (inactive)
GI50 (SK-MEL-2): > 100 µM (inactive)
GI50 (DU-145): > 100 µM (inactive)
GI50 (OVCAR-3): > 100 µM (inactive)
GI50 (HCT-15): > 100 µM
GI50 (TK-10): > 100 µM (inactive)
GI50 (SK-OV-3): > 100 µM (inactive)
